Laboratory results as given in patent US9493396B2, “Substituted naphthalene compounds as calcium sensing receptor modulators” (LUPIN ATLANTIS HOLDINGS SA, priority 2013, dated 2016).
Counter-ions that a name gives are not always drawn.

Target: T1, Calcium sensing receptor (hCaSR) (Homo sapiens, UniProt P41180)
T1 construct: expressed in transfected cells; host or cells: HEK293 (stably transfected)
T1 sequence (P41180 20-1078): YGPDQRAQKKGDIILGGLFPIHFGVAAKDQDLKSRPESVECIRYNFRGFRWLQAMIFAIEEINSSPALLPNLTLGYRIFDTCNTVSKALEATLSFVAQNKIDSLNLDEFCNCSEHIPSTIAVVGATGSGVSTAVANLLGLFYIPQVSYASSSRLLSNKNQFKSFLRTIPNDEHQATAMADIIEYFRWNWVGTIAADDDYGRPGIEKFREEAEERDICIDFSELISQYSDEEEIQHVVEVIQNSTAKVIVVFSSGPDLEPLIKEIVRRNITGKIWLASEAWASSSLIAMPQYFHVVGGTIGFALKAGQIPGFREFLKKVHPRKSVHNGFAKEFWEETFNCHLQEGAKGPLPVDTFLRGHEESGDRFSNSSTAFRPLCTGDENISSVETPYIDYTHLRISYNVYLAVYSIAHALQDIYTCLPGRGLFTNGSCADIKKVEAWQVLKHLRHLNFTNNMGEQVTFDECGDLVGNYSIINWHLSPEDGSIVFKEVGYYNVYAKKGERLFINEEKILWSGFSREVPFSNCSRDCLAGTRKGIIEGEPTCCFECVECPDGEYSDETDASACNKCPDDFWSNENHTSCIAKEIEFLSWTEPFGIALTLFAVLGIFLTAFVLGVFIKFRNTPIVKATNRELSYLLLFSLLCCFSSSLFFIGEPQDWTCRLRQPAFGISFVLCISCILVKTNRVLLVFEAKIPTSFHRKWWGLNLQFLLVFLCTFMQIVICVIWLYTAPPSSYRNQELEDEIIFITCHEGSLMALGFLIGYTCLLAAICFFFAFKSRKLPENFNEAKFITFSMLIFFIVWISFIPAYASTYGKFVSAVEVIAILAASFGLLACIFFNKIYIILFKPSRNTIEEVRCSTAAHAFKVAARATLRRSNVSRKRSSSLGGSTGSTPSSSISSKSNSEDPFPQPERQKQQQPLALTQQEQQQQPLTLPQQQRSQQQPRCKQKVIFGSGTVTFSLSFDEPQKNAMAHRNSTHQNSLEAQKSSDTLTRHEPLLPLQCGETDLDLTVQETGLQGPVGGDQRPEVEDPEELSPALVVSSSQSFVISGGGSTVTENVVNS
Assay: In-vitro assay of calcimimetics through modulation of calcium sensing receptor (intracellular calcium increase, FLIPR)
Type: cell-based
Settings: stably transfected HEK293 cells expressing hCaSR; Fluo4NW dye; 0.3 mM CaCl2; 8-point assay; read-out: EC50 in range
Protocol: In-Vitro Assay Method of Calcimimetics Through Modulation of Calcium Sensing Receptor (CaSR): The ability of the compounds to modulate Calcium sensing receptor is determined by measuring an increase in intracellular calcium [Ca^2+]i. Stably transfected HEK293 cells expressing hCaSR_pTriEx-3 hygro vector are developed. Cells are grown overnight on a 96-well plate to 80% confluency in Ham's F12 containing 20% FBS at 37° C., 5% CO2. Subsequently, cells are washed extensively with 20 mM HEPES buffer containing 126 mM […], 1 mM MgCl2 and 4 mM KCl to remove serum components that might interfere with the assay. Cells are loaded with calcium sensing Fluo4NW dye in HEPES base buffer containing 0.1% BSA and 1 mg/ml glucose for 30 minutes to measure changes in intracellular calcium. The activities of the compounds are measured in FLIPR using 0.3 mM CaCl2 in 20 mM HEPES base buffer. The effectiveness of the compound to modulate receptor activity is determined by calculating the EC50 responses for that compound in an 8-point assay and plotted using GraphPad Prism 5.

Structure (SMILES) | EC50 [nM]
COc1cc([C@@H](C)NC(C)c2cc(-c3ccc(C)c(C(=O)O)c3)c3ccccc3c2)ccc1F (stereo partly drawn) [Example 115, 5-(3-(1-(((R)-1-(4-Fluoro-3-methoxyphenyl)ethyl)amino)ethyl)naphthalen-1-yl)-2-methylbenzoic acid hydrochloride] | 50 to 400
COc1cccc([C@@H](C)NC(C)c2cc(-c3cc(F)cc(C(=O)O)c3)c3ccccc3c2)c1 (stereo partly drawn) [Example 118, 3-Fluoro-5-(3-(1-(((R)-1-(3-methoxyphenyl)ethyl)amino)ethyl)naphthalen-1-yl)benzoic acid hydrochloride] | < 20
COc1cccc([C@@H](C)NC(C)c2cc(-c3ccc(C(=O)O)cc3F)c3ccccc3c2)c1 (stereo partly drawn) [Example 120, 3-Fluoro-4-(3-(1-(((R)-1-(3-methoxyphenyl)ethyl)amino)ethyl)naphthalen-1-yl)benzoic acid hydrochloride] | < 20
COc1cccc([C@@H](C)NC(C)c2cc(-c3ccc(F)c(CCC(=O)O)c3)c3ccccc3c2)c1 (stereo partly drawn) [Example 122, 3-(2-Fluoro-5-(3-(1-(((R)-1-(3-methoxyphenyl)ethyl)amino)ethyl)naphthalen-1-yl)phenyl)propanoic acid hydrochloride] | < 20
COc1cccc([C@@H](C)NC(C)c2cc(-c3cc(C)cc(C(=O)O)c3)c3ccccc3c2)c1 (stereo partly drawn) [Example 125, 3-(3-(1-(((R)-1-(3-Methoxyphenyl)ethyl)amino)ethyl)naphthalen-1-yl)-5-methylbenzoic acid hydrochloride] | 50 to 400
COc1cccc([C@@H](C)NC(C)c2cc(-c3cccc(CCC(=O)O)c3F)c3ccccc3c2)c1 (stereo partly drawn) [Example 129, 3-(2-Fluoro-3-(3-(1-(((R)-1-(3-methoxyphenyl)ethyl)amino)ethyl)naphthalen-1-yl)phenyl)propanoic acid hydrochloride] | < 20
COc1cccc([C@@H](C)NC(C)c2cc(-c3ccc(OC)c(CCC(=O)O)c3)c3ccccc3c2)c1 (stereo partly drawn) [Example 131, 3-(2-Methoxy-5-(3-(1-(((R)-1-(3-methoxyphenyl)ethyl)amino)ethyl)naphthalen-1-yl)phenyl) propanoic acid hydrochloride] | 20 to 50
COc1cccc([C@@H](C)NC(C)c2cc(-c3cc(F)cc(CCC(=O)O)c3)c3ccccc3c2)c1 (stereo partly drawn) [Example 134, 3-(3-Fluoro-5-(3-(1-(((R)-1-(3-methoxyphenyl)ethyl)amino)ethyl)naphthalen-1-yl)phenyl)propanoic acid hydrochloride] | < 20
COc1cccc([C@@H](C)NC(C)c2cc(-c3ccc(C(F)(F)C(=O)O)cc3)c3ccccc3c2)c1 (stereo partly drawn) [Example 135, 2,2-Difluoro-2-(4-(3-(1-(((R)-1-(3-methoxyphenyl)ethyl)amino)ethyl)naphthalen-1-yl)phenyl) acetic acid hydrochloride] | < 20
COc1cccc([C@@H](C)NC(C)c2cc(-c3ccc(C(C)(C)C(=O)O)cc3)c3ccccc3c2)c1 (stereo partly drawn) [Example 138, 2-(4-(3-(1-(((R)-1-(3-Methoxyphenyl)ethyl)amino)ethyl)naphthalen-1-yl)phenyl)-2-methylpropanoic acid hydrochloride] | 50 to 400
COc1cccc([C@@H](C)NC(C)c2cc(-c3cccc(C(C)(C)C(=O)O)c3)c3ccccc3c2)c1 (stereo partly drawn) [Example 139, 2-(3-(3-(1-(((R)-1-(3-Methoxyphenyl)ethyl)amino)ethyl)naphthalen-1-yl)phenyl)-2-methylpropanoic acid hydrochloride] | 50 to 400

Now from value to compound:

EC50 [nM] | Structure (SMILES)
20 to 50 | COc1cccc([C@@H](C)NC(C)c2cc(-c3cccc(C(=O)O)c3C)c3ccccc3c2)c1 (stereo partly drawn) [Example 116, 3-(3-(1-(((R)-1-(3-Methoxyphenyl)ethyl)amino)ethyl)naphthalen-1-yl)-2-methylbenzoic acid hydrochloride]
50 to 400 | Cc1ccc(-c2cc(C(C)N[C@H](C)c3cccc(Cl)c3)cc3ccccc23)cc1C(=O)O (stereo partly drawn) [Example 117, 5-(3-(1-(((R)-1-(3-Chlorophenyl)ethyl)amino)ethyl)naphthalen-1-yl)-2-methylbenzoic acid hydrochloride]
50 to 400 | COc1cccc([C@@H](C)NC(C)c2cc(-c3ccc(C(=O)O)cc3)c3ccccc3c2)c1 (stereo partly drawn) [Example 119, 4-(3-(1-(((R)-1-(3-Methoxyphenyl)ethyl)amino)ethyl)naphthalen-1-yl)benzoic acid hydrochloride]
50 to 400 | COc1cccc([C@@H](C)NC(C)c2cc(-c3ccc(C(=O)O)c(Cl)c3)c3ccccc3c2)c1 (stereo partly drawn) [Example 121, 2-Chloro-4-(3-(1-(((R)-1-(3-methoxyphenyl)ethyl)amino)ethyl)naphthalen-1-yl)benzoic acid hydrochloride]
< 20 | COc1cccc([C@@H](C)NC(C)c2cc(-c3ccc(F)c(C(=O)O)c3)c3ccccc3c2)c1 (stereo partly drawn) [Example 123, 2-Fluoro-5-(3-(1-(((R)-1-(3-methoxyphenyl)ethyl)amino)ethyl)naphthalen-1-yl)benzoic acid hydrochloride]
20 to 50 | COc1cccc([C@@H](C)NC(C)c2cc(-c3ccc(C(=O)O)c(C(F)(F)F)c3)c3ccccc3c2)c1 (stereo partly drawn) [Example 124, 4-(3-(1-(((R)-1-(3-Methoxyphenyl)ethyl)amino)ethyl)naphthalen-1-yl)-2-(trifluoromethyl) benzoic acid hydrochloride]
< 20 | CCOc1cccc([C@@H](C)NC(C)c2cc(-c3ccc(F)c(C(=O)O)c3)c3ccccc3c2)c1 (stereo partly drawn) [Example 126, 5-(3-(1-(((R)-1-(3-Ethoxyphenyl)ethyl)amino)ethyl)naphthalen-1-yl)-2-fluorobenzoic acid hydrochloride]
50 to 400 | CC(N[C@H](C)c1cccc(Cl)c1)c1cc(-c2ccc(F)c(C(=O)O)c2)c2ccccc2c1 (stereo partly drawn) [Example 127, 5-(3-(1-(((R)-1-(3-Chlorophenyl)ethyl)amino)ethyl)naphthalen-1-yl)-2-fluorobenzoic acid hydrochloride]
50 to 400 | COc1cccc([C@@H](C)NC(C)c2cc(-c3ccc(C(F)(F)F)c(C(=O)O)c3)c3ccccc3c2)c1 (stereo partly drawn) [Example 128, 5-(3-(1-(((R)-1-(3-Methoxyphenyl)ethyl)amino)ethyl)naphthalen-1-yl)-2-(trifluoromethyl) benzoic acid hydrochloride]
50 to 400 | COc1cccc([C@@H](C)NC(C)c2cc(-c3ccc(C(=O)O)c(C)c3)c3ccccc3c2)c1 (stereo partly drawn) [Example 130, 4-(3-(1-(((R)-1-(3-Methoxyphenyl)ethyl)amino)ethyl)naphthalen-1-yl)-2-methylbenzoic acid hydrochloride]
50 to 400 | COc1cccc([C@@H](C)NC(C)c2cc(-c3ccc(C(=O)O)c(F)c3)c3ccccc3c2)c1 (stereo partly drawn) [Example 132, 2-Fluoro-4-(3-(1-(((R)-1-(3-methoxyphenyl)ethyl)amino)ethyl)naphthalen-1-yl)benzoic acid hydrochloride]
< 20 | COc1cccc([C@@H](C)NC(C)c2cc(-c3ccc(Cl)c(C(=O)O)c3)c3ccccc3c2)c1 (stereo partly drawn) [Example 133, 2-Chloro-5-(3-(1-(((R)-1-(3-methoxyphenyl)ethyl)amino)ethyl)naphthalen-1-yl)benzoic acid hydrochloride]
20 to 50 | COc1cccc([C@@H](C)NC(C)c2cc(-c3ccc(CCC(=O)O)c(F)c3)c3ccccc3c2)c1 (stereo partly drawn) [Example 136, 3-(2-Fluoro-4-(3-(1-(((R)-1-(3-methoxyphenyl)ethyl)amino)ethyl)naphthalen-1-yl)phenyl) propanoic acid hydrochloride]
< 20 | COc1cccc([C@@H](C)NC(C)c2cc(-c3ccc(C)c(CCC(=O)O)c3)c3ccccc3c2)c1 (stereo partly drawn) [Example 137, 3-(5-(3-(1-(((R)-1-(3-Methoxyphenyl)ethyl)amino)ethyl)naphthalen-1-yl)-2-methylphenyl) propanoic acid hydrochloride]
